“Also recorded” adds a separate entry of the source.
How the values were obtained:
[1] = Phase 1b study in subjects with Parkinson's disease, safety and tolerability; assay type: in vivo, human
Description: This study was a double-blind, placebo-controlled, parallel-design Phase 1b study with 28-day dosing, administered once daily in Parkinson's disease patients.
GERD, gastroesophageal reflux disease: TEAE, treatment-emergent adverse event. ^aProcedural related includes (in order of frequency): procedural pain, post procedural contusion, post procedural hematoma, and procedural headache; ^bHypotension and orthostatic hypotension occurred in the same two patients.
A total of 36 patients with PD (26 active, 10 placebo) were treated with up to 300 mg QD for 28 days (FIG. 8).
This was a Phase 1b, randomized, placebo-controlled, double-blind study designed to determine the safety, tolerability, PK, and pharmacodynamics of compound I in subjects with PD. The conduct of this study has been completed and the clinical study report is in progress. In Part 1, subjects were administered compound I 80 mg or placebo QD (1:1 ratio) for 28 days (n=8). In Part 2, subjects were administered compound I 80 or 130 mg or placebo QD (1:2:1 ratio) for 28 days (n=17). In Part 3, subjects were administered compound I 300 mg or placebo QD (4:1 ratio) for 28 days (n=11).

BMP(22:6/22:6) = assay: Urine BMP(22:6/22:6) (lysosomal engagement, Phase 1/1b); assay type: in vivo, human; conditions: HVs and patients with PD
Description: BMP concentrations were normalized to creatinine concentrations (ng/mg).
Lysosomal lipid BMP 22:6/22:6 (referred to throughout the document as “BMP”) measured in urine represents a mechanistic marker of correction of the lysosomal pathways downstream of LRRK2. BMP is a lysosomal phospholipid found exclusively on the intraluminal vesicles of late endosomes and lysosomes (Bissig and Gruenberg, Cold Spring Harb Perspect Biol. 2013; 5(10):a016816). Individuals with genetic or drug-induced lysosomal function disorders, including those with G2019S LRRK2 mutations, have increased levels of urine BMP (Lecommandeur et al., J Lipid Res. 2017:58(7): 1306-14; Alcalay et al., Mov Disord. 2013; 28(14):1966-71).

pT73 Rab10 = assay: pRab10 in PBMCs, MSD immunoassay (pathway engagement, Phase 1/1b); assay type: in vivo, human
Description: Blood was collected into CPT-sodium heparin tubes (BD BDAM362780) and PBMCs were then isolated following the manufacturer's protocol. The PBMCs were pelleted by centrifugation at maximum speed and then resuspended in PBMC lysis buffer (1× cell lysis buffer [CST catalog #9803] with PhosSTOP phosphatase inhibitor [Roche 04906837001], complete protease inhibitor [Roche 04693159001], and Benzonase [Sigma E8263]). The lysates were held on ice for 20 minutes, followed by centrifugation at maximum speed at 4° C. for 20 minutes. Supernatants were aliquoted and stored at −80° C. for later immunoassay analysis.
(§1) Capture antibodies were biotinylated using EZ-Link™ NHS-LC-LC-Biotin (Thermo Fisher, #21343), and detection antibodies were conjugated using Sulfo-TAG NHS-Ester (MSD, R31AA-1). 96-well (or 384-well) MSD GOLD Small Spot Streptavidin plates (MSD L45SSA-1) were coated with 25 μl (or 15 μl for 384 well plates) of capture antibody diluted in Diluent 100 (MSD, R50AA-2) for 1 hour at room temperature with 700 rpm shaking (1000 rpm for 384-well). After TBST wash (3×), 25 μl samples were added each well (10 μl for 384-well) and incubated at 4° C. overnight with agitation at 700 rpm. After TBST wash (3×), 25 μl of detection antibodies (15 μl for 384-well) were added each well diluted in TBST containing 25% MSD blocker A (MSD R93AA-1), together with rabbit (Rockland Antibodies D610-1000) and mouse gamma globin fraction (D609-0100). After 1 hour incubation at room temperature at 700 rpm, followed by TBST washes (3×), 150 μl MSD read buffer (MSD R92TC. 1:1 diluted with water) is added (35 μl for 384-well), and plates are read on the MSD Sector S 600.

pS935 LRRK2 = molecular target: T1, pS935 LRRK2 (Homo sapiens, UniProt Q5S007); assay: pS935 LRRK2 in whole blood, MSD immunoassay (target engagement, Phase 1/1b); assay type: in vivo; conditions: for reduction in pS935 compared with baseline: Phase 1 healthy volunteers
T1 construct: from tissue; host or cells: human whole blood from clinical study subjects (healthy subjects, and subjects with PD in Phase 1b)
Description: Frozen human whole blood samples were thawed and directly lysed in 96-well plates (100 μl whole blood sample with 100 μl lysis buffer). Samples were spun down (2,500×g for 20 minutes at 4° C.) before MSD assay.
as §1

[2] = Clinical safety across the Phase 1 and Phase 1b studies (conclusions); assay type: in vivo, human
Description: Based on the 2-fold increase in kinase activity associated with LRRK2 G2019S point mutations, reduction of whole-blood pS935 LRRK2 of ≥50% at trough in ≥50% of the study subjects represents a minimal pharmacodynamic target.
Safety data from Phase 1 first in human study in healthy subjects and Phase 1b study in subjects with PD are summarized below.
The most common TEAE in compound I-treated participants was headache.

[3] = subjects with PD, 80, 130 or 300 mg QD for 28 days
[4] = subjects with PD, 80-300 mg QD for 28 days

T1 sequence (Q5S007 whole entry): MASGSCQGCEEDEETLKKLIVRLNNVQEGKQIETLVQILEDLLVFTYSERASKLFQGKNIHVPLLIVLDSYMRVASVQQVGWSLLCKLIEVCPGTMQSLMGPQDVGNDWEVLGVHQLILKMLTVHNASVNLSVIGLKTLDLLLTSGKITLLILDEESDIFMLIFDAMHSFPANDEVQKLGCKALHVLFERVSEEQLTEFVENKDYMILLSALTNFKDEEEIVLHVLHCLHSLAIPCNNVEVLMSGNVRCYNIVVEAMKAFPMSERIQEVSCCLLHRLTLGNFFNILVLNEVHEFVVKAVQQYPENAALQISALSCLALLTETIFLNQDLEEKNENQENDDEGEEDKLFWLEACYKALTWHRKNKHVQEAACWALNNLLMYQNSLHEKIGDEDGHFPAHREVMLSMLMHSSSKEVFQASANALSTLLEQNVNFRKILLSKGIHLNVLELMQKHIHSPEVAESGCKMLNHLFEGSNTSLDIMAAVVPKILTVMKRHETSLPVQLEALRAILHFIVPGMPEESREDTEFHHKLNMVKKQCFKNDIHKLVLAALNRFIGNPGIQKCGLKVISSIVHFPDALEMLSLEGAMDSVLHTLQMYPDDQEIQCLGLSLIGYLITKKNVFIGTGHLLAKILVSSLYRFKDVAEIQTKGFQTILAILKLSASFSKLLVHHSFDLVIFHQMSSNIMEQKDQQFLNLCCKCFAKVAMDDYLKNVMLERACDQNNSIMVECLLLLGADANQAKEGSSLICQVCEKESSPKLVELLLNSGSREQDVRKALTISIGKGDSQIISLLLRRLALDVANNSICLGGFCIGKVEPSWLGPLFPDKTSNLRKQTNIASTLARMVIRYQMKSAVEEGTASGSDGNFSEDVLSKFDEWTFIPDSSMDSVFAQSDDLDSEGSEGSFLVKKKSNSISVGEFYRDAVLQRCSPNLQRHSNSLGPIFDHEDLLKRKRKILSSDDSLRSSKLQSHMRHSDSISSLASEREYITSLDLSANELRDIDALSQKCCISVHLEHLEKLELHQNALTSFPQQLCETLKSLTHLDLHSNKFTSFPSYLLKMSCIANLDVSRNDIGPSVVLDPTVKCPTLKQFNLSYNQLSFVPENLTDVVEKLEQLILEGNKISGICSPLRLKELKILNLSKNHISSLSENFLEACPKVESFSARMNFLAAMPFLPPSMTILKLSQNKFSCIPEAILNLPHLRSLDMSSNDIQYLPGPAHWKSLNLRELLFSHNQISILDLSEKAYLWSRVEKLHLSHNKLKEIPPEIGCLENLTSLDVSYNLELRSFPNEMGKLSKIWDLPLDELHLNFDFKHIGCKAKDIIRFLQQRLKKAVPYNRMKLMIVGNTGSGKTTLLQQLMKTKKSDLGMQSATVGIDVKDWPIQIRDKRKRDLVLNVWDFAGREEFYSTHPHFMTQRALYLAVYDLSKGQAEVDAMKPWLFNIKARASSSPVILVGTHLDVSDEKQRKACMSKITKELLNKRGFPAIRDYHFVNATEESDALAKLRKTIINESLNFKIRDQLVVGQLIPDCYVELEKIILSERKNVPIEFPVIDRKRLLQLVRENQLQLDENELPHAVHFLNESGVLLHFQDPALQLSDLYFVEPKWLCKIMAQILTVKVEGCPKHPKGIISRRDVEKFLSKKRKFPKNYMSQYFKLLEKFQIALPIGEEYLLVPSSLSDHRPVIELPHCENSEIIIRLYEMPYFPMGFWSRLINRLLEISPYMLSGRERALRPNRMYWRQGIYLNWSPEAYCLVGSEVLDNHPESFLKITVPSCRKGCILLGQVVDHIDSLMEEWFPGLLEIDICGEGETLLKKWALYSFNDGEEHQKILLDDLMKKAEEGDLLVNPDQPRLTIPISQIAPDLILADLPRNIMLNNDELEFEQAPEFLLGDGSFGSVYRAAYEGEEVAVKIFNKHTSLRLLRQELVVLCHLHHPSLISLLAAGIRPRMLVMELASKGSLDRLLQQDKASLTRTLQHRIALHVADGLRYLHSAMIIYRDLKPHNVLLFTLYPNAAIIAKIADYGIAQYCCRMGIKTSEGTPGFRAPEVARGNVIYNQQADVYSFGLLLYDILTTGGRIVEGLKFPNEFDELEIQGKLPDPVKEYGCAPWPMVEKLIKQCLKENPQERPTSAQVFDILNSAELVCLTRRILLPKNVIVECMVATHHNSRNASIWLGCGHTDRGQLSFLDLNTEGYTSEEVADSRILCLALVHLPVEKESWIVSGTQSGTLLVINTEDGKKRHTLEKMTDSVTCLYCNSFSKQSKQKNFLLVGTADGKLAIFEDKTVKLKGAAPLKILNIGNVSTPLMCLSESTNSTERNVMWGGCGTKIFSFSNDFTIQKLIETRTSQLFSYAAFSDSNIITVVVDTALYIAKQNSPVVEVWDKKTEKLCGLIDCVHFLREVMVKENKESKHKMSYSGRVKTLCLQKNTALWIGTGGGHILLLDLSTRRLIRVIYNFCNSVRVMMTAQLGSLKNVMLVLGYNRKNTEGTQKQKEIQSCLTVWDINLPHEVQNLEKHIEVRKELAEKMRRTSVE

## CCNc1nc(Nc2cc(C(C)(C)n3nccn3)nn2C2CC2)ncc1C(F)(F)F [compound I, N2-(3-(2-(2H-1,2,3-triazol-2-yl)propan-2-yl)-1-cyclopropyl-1H-pyrazol-5-yl)-N4-ethyl-5-(trifluoromethyl)pyrimidine-2,4-diamine]
[1]; [3]
  SAEs or AESIs: No SAEs or AESIs were reported
  tolerability: generally well tolerated
[1]; [4]
  changes from baseline or trends in safety laboratory (including liver and renal function testing), ECG, neurological assessment, vital sign, PFT or C-SSRS results: No other clinically significant individual changes from baseline or notable trends
  subjects who experienced ≥1 TEAE: 23 (88.5%) subjects (%)
  subjects with moderate TEAEs: 5 (19%) subjects (%)
[1]; subjects with PD, 80 mg QD and 300 mg QD, resolved while on study drug
  additional subjects with TEAEs of mild orthostatic hypotension / mild hypotension plus orthostatic hypotension: Two additional subjects
[1]; subjects with PD, hypotension (130 mg QD), headache (300 mg QD), both considered not related to study drug
  subjects with severe TEAEs: Two subjects
BMP(22:6/22:6)
  lysosomal lipid BMP 22:6 in urine: dose-dependent reduction
pT73 Rab10; PBMC, about 70 to 800 mg/day, stated as an aspect of the method
  pRab10 reduced by at least: 44-97%
pT73 Rab10; Phase 1 HVs, trough (predose), steady state (Day 10 Cohort B, Day 28 Cohort D, Day 14 Cohort E), highest dose
  reduction of phosphorylation of Rab10 (pRab10) in PBMCs: ≥ 70%
pT73 Rab10; Phase 1b patients with PD, trough (predose), steady state, all doses
  pRab10 in PBMCs: reduced
pS935 LRRK2; HVs and patients with PD, at doses generally well tolerated
  target and pathway engagement: robust target engagement and pathway engagement; also recorded: Robust target and pathway engagement
pS935 LRRK2; Phase 1b patients with PD, trough (predose), steady state (Day 28), all dose levels studied
  reduction of pS935 in whole blood: robust reduction
pS935 LRRK2; whole blood, trough (predose) at steady state (Day 10 Cohort B, Day 28 Cohort D, Day 14 Cohort E), highest dose
  reduction in pS935 compared with baseline: ≥ 80%
pS935 LRRK2; whole blood, trough (predose) at steady state, lowest clinically relevant dose
  reduction in pS935 compared with baseline: ≥ 50%
pS935 LRRK2; whole blood, about 70 to 800 mg/day, stated as an aspect of the method
  pS935 reduced by at least: 41-97%
[2]; HVs and patients with PD
  most common TEAE: headache
[2]; HVs and patients with PD, up to 28 days
  changes in pulmonary or renal function: no clinically meaningful changes
[2]; broad range of doses, HVs and patients with PD, up to 28 days
  tolerability: generally well tolerated
[2]; healthy subjects and subjects with PD, up to 28 days of exposure
  changes in potential LRRK2 on-target renal or pulmonary function: no apparent changes
[2]; over 200 subjects, doses up to 400 mg BID for 14 days in healthy volunteers or 225 mg for 28 days
  safety and tolerability: safe and generally well tolerated

From patent US20240207266A1, “METHODS FOR TREATING AND MONITORING PARKINSON'S DISEASE” (Denali Therapeutics Inc., priority 2021, published 2024)
